Measurements published in patent US20260285850A1, “SUBSTITUTED OXAZOLIDINONES AND IMIDAZOLINONES AS HERBICIDES” (FMC CORPORATION, priority 2023, published 2026).

Experiments:
Format in all cases: in vivo
[1] = tested on: barnyardgrass (Echinochloa crus-galli); experiment: Test A preemergence soil spray, visual injury rating 0-100; conditions: 10 days, 0 = no effect, 100 = complete control
Summary of the method: (§1)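 Loam-sand pots got test material in surfactant-containing solvent, either as a directed soil spray before emergence or on plants at the one- to two-leaf stage. Visual injury (0-100) was read after ten greenhouse days.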

[2] = tested on: blackgrass (Alopecurus myosuroides); experiment: as above; conditions: 10 days, 0 = no effect, 100 = complete control
Summary of the method: as §1

corn (Zea mays) [3] = experiment: as above; conditions: 10 days, 0 = no effect, 100 = complete control
Summary of the method: as §1

[4] = tested on: green foxtail (Setaria viridis); experiment: as above; conditions: 10 days, 0 = no effect, 100 = complete control
Summary of the method: as §1

kochia (Bassia scoparia) [5] = experiment: as above; conditions: 10 days, 0 = no effect, 100 = complete control
Summary of the method: as §1

[6] = tested on: oat, wild (wild oat, Avena fatua); experiment: as above; conditions: 10 days, 0 = no effect, 100 = complete control
Summary of the method: as §1

[7] = tested on: palmer (palmer amaranth, palmer pigweed, Amaranthus palmeri); experiment: as above; conditions: 10 days, 0 = no effect, 100 = complete control
Summary of the method: as §1

[8] = tested on: ragweed (common ragweed, Ambrosia artemisiifolia); experiment: as above; conditions: 10 days, 0 = no effect, 100 = complete control
Summary of the method: as §1

[9] = tested on: ryegrass, Italian (italian ryegrass, Lolium multiflorum); experiment: as above; conditions: 10 days, 0 = no effect, 100 = complete control
Summary of the method: as §1

soybean (Glycine max) [10] = experiment: as above; conditions: 10 days, 0 = no effect, 100 = complete control
Summary of the method: as §1

[11] = tested on: wheat (Triticum aestivum); experiment: as above; conditions: 10 days, 0 = no effect, 100 = complete control
Summary of the method: as §1

[12] = tested on: barnyardgrass (Echinochloa crus-galli); experiment: Test A postemergence application, visual injury rating 0-100; conditions: 10 days
Summary of the method: as §1

[13] = tested on: blackgrass (Alopecurus myosuroides); experiment: as above; conditions: 10 days
Summary of the method: as §1

corn (Zea mays) [14] = experiment: as above; conditions: 10 days
Summary of the method: as §1

[15] = tested on: galium (catchweed bedstraw, Galium aparine); experiment: as above; conditions: 10 days
Summary of the method: as §1

[16] = tested on: green foxtail (Setaria viridis); experiment: as above; conditions: 10 days
Summary of the method: as §1

[17] = tested on: horseweed (Erigeron canadensis); experiment: as above; conditions: 10 days
Summary of the method: as §1

kochia (Bassia scoparia) [18] = experiment: as above; conditions: 10 days
Summary of the method: as §1

[19] = tested on: oat, wild (wild oat, Avena fatua); experiment: as above; conditions: 10 days
Summary of the method: as §1

[20] = tested on: palmer (palmer amaranth, palmer pigweed, Amaranthus palmeri); experiment: as above; conditions: 10 days
Summary of the method: as §1

[21] = tested on: ragweed (common ragweed, Ambrosia artemisiifolia); experiment: as above; conditions: 10 days
Summary of the method: as §1

[22] = tested on: ryegrass, Italian (italian ryegrass, Lolium multiflorum); experiment: as above; conditions: 10 days
Summary of the method: as §1

soybean (Glycine max) [23] = experiment: as above; conditions: 10 days
Summary of the method: as §1

[24] = tested on: wheat (Triticum aestivum); experiment: as above; conditions: 10 days
Summary of the method: as §1

[25] = tested on: barnyardgrass (Echinochloa crusgalli); experiment: Test B flooded paddy test, visual plant response rating 0-100; conditions: 250 g ai/ha, Flood, applied to paddy water, evaluated after 13 days
Summary of the method: (§2)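 Compounds applied to standing paddy water (3 cm above soil, maintained for the test duration) on 2-leaf-stage plants; visual rating vs controls at 13 days, greenhouse.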

[26] = tested on: ducksalad (Heteranthera limosa); experiment: as above; conditions: 250 g ai/ha, Flood, applied to paddy water, evaluated after 13 days
Summary of the method: as §2

rice (Oryza sativa) = experiment: as above; conditions: 250 g ai/ha, Flood, applied to paddy water, evaluated after 13 days
Summary of the method: as §2

[27] = tested on: sedge, umbrella (small-flower umbrella sedge, Cyperus difformis); experiment: as above; conditions: 250 g ai/ha, Flood, applied to paddy water, evaluated after 13 days
Summary of the method: as §2

[28] = 31 g ai/ha, postemergence, 0 = no effect, 100 = complete control
[29] = Postemergence, 125 g ai/ha, 0 is no effect, 100 is complete control

Compound: COC(=O)C1C=CC(NC(=O)C2(C)CN(c3cc(F)cc(Cl)c3)C(=O)O2)C1 (stereo not shown) [Compound 17]
- Barnyardgrass plant response rating (0-100) ([1]; 31 g ai/ha): 80
- Barnyardgrass plant response rating (0 to 100 scale) ([1]; 125 g ai/ha): 100
- Blackgrass plant response rating (0-100) ([2]; 31 g ai/ha): 20
- Blackgrass plant response rating (0 to 100 scale) ([2]; 125 g ai/ha): 70
- Corn plant response rating (0-100) (corn (Zea mays) [3]; 31 g ai/ha): 20
- Corn plant response rating (0 to 100 scale) (corn (Zea mays) [3]; 125 g ai/ha): 80
- Foxtail, Green plant response rating (0-100) ([4]; 31 g ai/ha): 50
- Foxtail, Green plant response rating (0 to 100 scale) ([4]; 125 g ai/ha): 100
- Kochia plant response rating (0-100) (kochia (Bassia scoparia) [5]; 31 g ai/ha): 50
- Kochia plant response rating (0 to 100 scale) (kochia (Bassia scoparia) [5]; 125 g ai/ha): 100
- Oat, Wild plant response rating (0-100) ([6]; 31 g ai/ha): 10
- Oat, Wild plant response rating (0 to 100 scale) ([6]; 125 g ai/ha): 80
- Amaranth, Palmer plant response rating (0-100) ([7]; 31 g ai/ha): 70
- Amaranth, Palmer plant response rating (0 to 100 scale) ([7]; 125 g ai/ha): 100
- Ragweed plant response rating (0-100) ([8]; 31 g ai/ha): 20
- Ragweed plant response rating (0 to 100 scale) ([8]; 125 g ai/ha): 40
- Ryegrass, Italian plant response rating (0-100) ([9]; 31 g ai/ha): 90
- Ryegrass, Italian plant response rating (0 to 100 scale) ([9]; 125 g ai/ha): 90
- Soybean plant response rating (0-100) (soybean (Glycine max) [10]; 31 g ai/ha): 0
- Soybean plant response rating (0 to 100 scale) (soybean (Glycine max) [10]; 125 g ai/ha): 80
- Wheat plant response rating (0-100) ([11]; 31 g ai/ha): 80
- Wheat plant response rating (0 to 100 scale) ([11]; 125 g ai/ha): 90
- Barnyardgrass plant response rating (0-100) [12, 28]: 100
- Barnyardgrass plant response rating (0 to 100 scale) [12, 29]: 100
- Blackgrass plant response rating (0-100) [13, 28]: 60
- Blackgrass plant response rating (0 to 100 scale) [13, 29]: 90
- Corn plant response rating (0-100) (corn (Zea mays) [14]; [28]): 70
- Corn plant response rating (0 to 100 scale) (corn (Zea mays) [14]; [29]): 100
- Galium plant response rating (0-100) [15, 28]: 80
- Galium plant response rating (0 to 100 scale) [15, 29]: 80
- Foxtail, Green plant response rating (0-100) [16, 28]: 80
- Foxtail, Green plant response rating (0 to 100 scale) [16, 29]: 90
- Horseweed plant response rating (0-100) [17, 28]: 30
- Horseweed plant response rating (0 to 100 scale) [17, 29]: 70
- Kochia plant response rating (0-100) (kochia (Bassia scoparia) [18]; [28]): 60
- Kochia plant response rating (0 to 100 scale) (kochia (Bassia scoparia) [18]; [29]): 70
- Oat, Wild plant response rating (0-100) [19, 28]: 90
- Oat, Wild plant response rating (0 to 100 scale) [19, 29]: 90
- Amaranth, Palmer plant response rating (0-100) [20, 28]: 70
- Amaranth, Palmer / Pigweed, Palmer plant response rating (0 to 100 scale) [20, 29]: 90
- Ragweed plant response rating (0-100) [21, 28]: 30
- Ragweed plant response rating (0 to 100 scale) [21, 29]: 80
- Ryegrass, Italian plant response rating (0-100) [22, 28]: 90
- Ryegrass, Italian plant response rating (0 to 100 scale) [22, 29]: 90
- Soybean plant response rating (0-100) (soybean (Glycine max) [23]; [28]): 50
- Soybean plant response rating (0 to 100 scale) (soybean (Glycine max) [23]; [29]): 90
- Wheat plant response rating (0-100) [24, 28]: 90
- Wheat plant response rating (0 to 100 scale) [24, 29]: 90
- Plant response rating, Barnyardgrass (0 to 100 scale, 0 is no effect and 100 is complete control) [25]: 70
- Plant response rating, Ducksalad (0 to 100 scale, 0 is no effect and 100 is complete control) [26]: 70
- Plant response rating, Rice (0 to 100 scale, 0 is no effect and 100 is complete control) (rice (Oryza sativa)): 10
- Plant response rating, Sedge, Umbrella (0 to 100 scale, 0 is no effect and 100 is complete control) [27]: 60
